Test results as given in ChEMBL document CHEMBL3044572, “Discovery of 2-(4-cyano-3-trifluoromethylphenyl amino)-4-(4-quinazolinyloxy)-6-piperazinyl(piperidinyl)-s-triazines as potential antibacterial agents” (2012).
Values after ≈ are worked out from the molar mass of the structure shown. Active and inactive are the calls of the source. The rule behind the calls is not given here.

Columns and labels:
[1] = test system: Mycobacterium tuberculosis; test: Antimicrobial activity against Mycobacterium tuberculosis H37Rv by BACTEC MGIT method; assay type: functional; conditions: for MIC: Mycobacterium tuberculosis, H37Rv
Klebsiella pneumoniae [2] = test: Antimicrobial activity against Klebsiella pneumoniae MTCC 109 by paper disk diffusion method; assay type: functional
Pseudomonas aeruginosa [3] = test: Antimicrobial activity against Pseudomonas aeruginosa MTCC 741 at 100 ug/ml by paper disk diffusion method; assay type: functional, organism-based
Aspergillus clavatus [4] = test: Antimicrobial activity against Aspergillus clavatus MTCC 1323 by paper disk diffusion method; assay type: functional
Proteus vulgaris [5] = test: Antimicrobial activity against Proteus vulgaris MTCC 1771 by paper disk diffusion method; assay type: functional
Salmonella typhi [6] = test: Antimicrobial activity against Salmonella enterica subsp. enterica serovar Typhi MTCC 733 by agar streak dilution method; assay type: functional
Aspergillus fumigatus [7] = test: Antimicrobial activity against Aspergillus fumigatus MTCC 343 by paper-disk diffusion method; assay type: functional
Aspergillus niger [8] = test: Antimicrobial activity against Aspergillus niger MTCC 282 by paper-disk diffusion method; assay type: functional
Candida albicans [9] = test: Antimicrobial activity against Candida albicans MTCC 183 by paper-disk diffusion method; assay type: functional
Aspergillus fumigatus [10] = test: Antimicrobial activity against Aspergillus fumigatus MTCC 343 by agar streak dilution method; assay type: functional
Bacillus cereus [11] = test: Antimicrobial activity against Bacillus cereus MTCC 619 by paper disk diffusion method; assay type: functional
Escherichia coli [12] = test: Antimicrobial activity against Escherichia coli MTCC 739 by agar streak dilution method; assay type: functional
Aspergillus clavatus [13] = test: Antimicrobial activity against Aspergillus clavatus MTCC 1323 by agar streak dilution method; assay type: functional
Bacillus cereus [14] = test: Antimicrobial activity against Bacillus cereus MTCC 619 by agar streak dilution method; assay type: functional
Staphylococcus aureus [15] = test: Antimicrobial activity against Staphylococcus aureus MTCC 96 by paper-disk diffusion method; assay type: functional
Klebsiella pneumoniae [16] = test: Antimicrobial activity against Klebsiella pneumoniae MTCC 109 by agar streak dilution method; assay type: functional
Pseudomonas aeruginosa [17] = test: Antimicrobial activity against Pseudomonas aeruginosa MTCC 741 by agar streak dilution method; assay type: functional
Escherichia coli [18] = test: Antimicrobial activity against Escherichia coli MTCC 739 by paper disk diffusion method; assay type: functional
Salmonella typhi [19] = test: Antimicrobial activity against Salmonella enterica subsp. enterica serovar Typhi MTCC 733 by paper disk diffusion method; assay type: functional
Proteus vulgaris [20] = test: Antimicrobial activity against Proteus vulgaris MTCC 1771 by agar streak dilution method; assay type: functional
Pseudomonas aeruginosa [21] = test: Antimicrobial activity against Pseudomonas aeruginosa MTCC 741 by paper disk diffusion method; assay type: functional
Staphylococcus aureus [22] = test: Antimicrobial activity against Staphylococcus aureus MTCC 96 by agar streak dilution method; assay type: functional
Candida albicans [23] = test: Antimicrobial activity against Candida albicans MTCC 183 by agar streak dilution method; assay type: functional
Shigella flexneri [24] = test: Antimicrobial activity against Shigella flexneri MTCC 1457 by agar streak dilution method; assay type: functional
Shigella flexneri [25] = test: Antimicrobial activity against Shigella flexneri MTCC 1457 by paper disk diffusion method; assay type: functional
Aspergillus niger [26] = test: Antimicrobial activity against Aspergillus niger MTCC 282 by agar streak dilution method; assay type: functional
[27] = test system: Mycobacterium tuberculosis; test: Antimicrobial activity against Mycobacterium tuberculosis H37Rv by Lowenstein and Jensen method; assay type: functional; conditions: for MIC: Mycobacterium tuberculosis, H37Rv
[28] = test system: Mycobacterium tuberculosis; test: Antimicrobial activity against Mycobacterium tuberculosis H37Rv at 100 ug/ml by BACTEC MGIT method; assay type: functional, organism-based

Structure (SMILES)	MIC [1]	inhibition zone (IZ) (Klebsiella pneumoniae [2])	inhibition zone (IZ) (Pseudomonas aeruginosa [3])	inhibition zone (IZ) (Aspergillus clavatus [4])	MIC (Salmonella typhi [6])	inhibition zone (IZ) (Aspergillus fumigatus [7])	inhibition zone (IZ) (Aspergillus niger [8])	inhibition zone (IZ) (Candida albicans [9])	inhibition (INH) [1]	MIC (Bacillus cereus [14])	inhibition zone (IZ) (Staphylococcus aureus [15])	inhibition zone (IZ) (Escherichia coli [18])	inhibition zone (IZ) (Salmonella typhi [19])	MIC (Proteus vulgaris [20])	inhibition zone (IZ) (Pseudomonas aeruginosa [21])	MIC (Staphylococcus aureus [22])	MIC (Candida albicans [23])	MIC (Shigella flexneri [24])	inhibition zone (IZ) (Shigella flexneri [25])	MIC (Aspergillus niger [26])	other results
NNC(=O)c1ccncc1 [ISONIAZID]	0.2 µg/mL (≈ 1.46 µM)																				
COc1ccc(CN2CCN(c3nc(Nc4ccc(C#N)c(C(F)(F)F)c4)nc(Oc4ncnc5ccccc45)n3)CC2)c(OC)c1OC	6.25 µg/mL (≈ 9.28 µM)	26 mm	inactive	25 mm	25 µg/mL (≈ 37.1 µM)	25 mm	25 mm	26 mm	99%	3.12 µg/mL (≈ 4.63 µM)	29 mm	28 mm	25 mm	6.25 µg/mL (≈ 9.28 µM)	26 mm	3.12 µg/mL (≈ 4.63 µM)	12.5 µg/mL (≈ 18.6 µM)	25 µg/mL (≈ 37.1 µM)	24 mm	6.25 µg/mL (≈ 9.28 µM)	inhibition zone (IZ) (Proteus vulgaris [5]): 25 mm; MIC (Aspergillus fumigatus [10]): 6.25 µg/mL (≈ 9.28 µM); inhibition zone (IZ) (Bacillus cereus [11]): 27 mm; MIC (Escherichia coli [12]): 6.25 µg/mL (≈ 9.28 µM); MIC (Aspergillus clavatus [13]): 6.25 µg/mL (≈ 9.28 µM); MIC (Klebsiella pneumoniae [16]): 6.25 µg/mL (≈ 9.28 µM); MIC (Pseudomonas aeruginosa [17]): 12.5 µg/mL (≈ 18.6 µM); inhibition (percent inhibition) [27]: 99%; MIC [27]: 6.25 µg/mL (≈ 9.28 µM)
CC1CC(C)CN(c2nc(Nc3ccc(C#N)c(C(F)(F)F)c3)nc(Oc3ncnc4ccccc34)n2)C1 (stereo not drawn)	6.25 µg/mL (≈ 12 µM)	26 mm	inactive	25 mm	25 µg/mL (≈ 48 µM)	23 mm	22 mm	24 mm	99%	12.5 µg/mL (≈ 24 µM)	27 mm	27 mm	26 mm	6.25 µg/mL (≈ 12 µM)	27 mm	6.25 µg/mL (≈ 12 µM)	25 µg/mL (≈ 48 µM)	100 µg/mL (≈ 192 µM)	22 mm	25 µg/mL (≈ 48 µM)	inhibition zone (IZ) (Proteus vulgaris [5]): 26 mm; MIC (Aspergillus fumigatus [10]): 25 µg/mL (≈ 48 µM); inhibition zone (IZ) (Bacillus cereus [11]): 26 mm; MIC (Escherichia coli [12]): 6.25 µg/mL (≈ 12 µM); MIC (Aspergillus clavatus [13]): 6.25 µg/mL (≈ 12 µM); MIC (Klebsiella pneumoniae [16]): 6.25 µg/mL (≈ 12 µM); MIC (Pseudomonas aeruginosa [17]): 12.5 µg/mL (≈ 24 µM); inhibition (percent inhibition) [27]: 99%; MIC [27]: 6.25 µg/mL (≈ 12 µM)
NC(=O)c1cnccn1 [PYRAZINAMIDE]	6.25 µg/mL (≈ 50.8 µM)								99%												
N#Cc1ccc(Nc2nc(Oc3ncnc4ccccc34)nc(N3CCN(C(c4ccccc4)c4ccc(Cl)cc4)CC3)n2)cc1C(F)(F)F (stereo not drawn)	6.25 µg/mL (≈ 9 µM)	24 mm	inactive	24 mm	6.25 µg/mL (≈ 9 µM)	24 mm	24 mm	24 mm	99%	6.25 µg/mL (≈ 9 µM)	29 mm	26 mm	27 mm	50 µg/mL (≈ 72 µM)	28 mm	6.25 µg/mL (≈ 9 µM)	25 µg/mL (≈ 36 µM)	50 µg/mL (≈ 72 µM)	24 mm	12.5 µg/mL (≈ 18 µM)	inhibition zone (IZ) (Proteus vulgaris [5]): 23 mm; MIC (Aspergillus fumigatus [10]): 12.5 µg/mL (≈ 18 µM); inhibition zone (IZ) (Bacillus cereus [11]): 26 mm; MIC (Escherichia coli [12]): 25 µg/mL (≈ 36 µM); MIC (Aspergillus clavatus [13]): 12.5 µg/mL (≈ 18 µM); MIC (Klebsiella pneumoniae [16]): 25 µg/mL (≈ 36 µM); MIC (Pseudomonas aeruginosa [17]): 6.25 µg/mL (≈ 9 µM); inhibition (percent inhibition) [27]: 99%; MIC [27]: 6.25 µg/mL (≈ 9 µM)
N#Cc1ccc(Nc2nc(Oc3ncnc4ccccc34)nc(N3CCN(c4cccc(Cl)c4Cl)CC3)n2)cc1C(F)(F)F	6.25 µg/mL (≈ 9.79 µM)	24 mm	inactive	23 mm	12.5 µg/mL (≈ 19.6 µM)	23 mm	25 mm	27 mm	99%	6.25 µg/mL (≈ 9.79 µM)	29 mm	24 mm	26 mm	6.25 µg/mL (≈ 9.79 µM)	24 mm	3.12 µg/mL (≈ 4.89 µM)	6.25 µg/mL (≈ 9.79 µM)	12.5 µg/mL (≈ 19.6 µM)	26 mm	6.25 µg/mL (≈ 9.79 µM)	inhibition zone (IZ) (Proteus vulgaris [5]): 26 mm; MIC (Aspergillus fumigatus [10]): 25 µg/mL (≈ 39.2 µM); inhibition zone (IZ) (Bacillus cereus [11]): 25 mm; MIC (Escherichia coli [12]): 50 µg/mL (≈ 78.3 µM); MIC (Aspergillus clavatus [13]): 25 µg/mL (≈ 39.2 µM); MIC (Klebsiella pneumoniae [16]): 50 µg/mL (≈ 78.3 µM); MIC (Pseudomonas aeruginosa [17]): 12.5 µg/mL (≈ 19.6 µM); inhibition (percent inhibition) [27]: 99%; MIC [27]: 6.25 µg/mL (≈ 9.79 µM)
COc1ccc(N2CCN(c3nc(Nc4ccc(C#N)c(C(F)(F)F)c4)nc(Oc4ncnc5ccccc45)n3)CC2)cc1	> 6.25 µg/mL	25 mm	inactive	25 mm	25 µg/mL (≈ 41.7 µM)	25 mm	25 mm	25 mm		6.25 µg/mL (≈ 10.4 µM)	27 mm	28 mm	25 mm	6.25 µg/mL (≈ 10.4 µM)	27 mm	6.25 µg/mL (≈ 10.4 µM)	12.5 µg/mL (≈ 20.8 µM)	50 µg/mL (≈ 83.4 µM)	23 mm	6.25 µg/mL (≈ 10.4 µM)	inhibition zone (IZ) (Proteus vulgaris [5]): 26 mm; inhibition [28]: inactive; MIC (Aspergillus fumigatus [10]): 6.25 µg/mL (≈ 10.4 µM); inhibition zone (IZ) (Bacillus cereus [11]): 25 mm; MIC (Escherichia coli [12]): 6.25 µg/mL (≈ 10.4 µM); MIC (Aspergillus clavatus [13]): 6.25 µg/mL (≈ 10.4 µM); MIC (Klebsiella pneumoniae [16]): 12.5 µg/mL (≈ 20.8 µM); MIC (Pseudomonas aeruginosa [17]): 12.5 µg/mL (≈ 20.8 µM); inhibition (percent inhibition) [27]: 99%; MIC [27]: 25 µg/mL (≈ 41.7 µM)
N#Cc1ccc(Nc2nc(Oc3ncnc4ccccc34)nc(N3CCN(c4cccc(C(F)(F)F)c4)CC3)n2)cc1C(F)(F)F	6.25 µg/mL (≈ 9.8 µM)	25 mm	inactive	25 mm	25 µg/mL (≈ 39.2 µM)	24 mm	26 mm	27 mm	99%	3.12 µg/mL (≈ 4.89 µM)	29 mm	25 mm	25 mm	6.25 µg/mL (≈ 9.8 µM)	28 mm	3.12 µg/mL (≈ 4.89 µM)	6.25 µg/mL (≈ 9.8 µM)	12.5 µg/mL (≈ 19.6 µM)	27 mm	3.12 µg/mL (≈ 4.89 µM)	inhibition zone (IZ) (Proteus vulgaris [5]): 26 mm; MIC (Aspergillus fumigatus [10]): 12.5 µg/mL (≈ 19.6 µM); inhibition zone (IZ) (Bacillus cereus [11]): 28 mm; MIC (Escherichia coli [12]): 25 µg/mL (≈ 39.2 µM); MIC (Aspergillus clavatus [13]): 6.25 µg/mL (≈ 9.8 µM); MIC (Klebsiella pneumoniae [16]): 6.25 µg/mL (≈ 9.8 µM); MIC (Pseudomonas aeruginosa [17]): 6.25 µg/mL (≈ 9.8 µM); inhibition (percent inhibition) [27]: 99%; MIC [27]: 6.25 µg/mL (≈ 9.8 µM)
O=C(O)c1cn(C2CC2)c2cc(N3CCNCC3)c(F)cc2c1=O [CIPROFLOXACIN]		33 mm	inactive		0.39 µg/mL (≈ 1.18 µM)	29 mm	30 mm	33 mm		0.39 µg/mL (≈ 1.18 µM)	30 mm	32 mm	30 mm	0.39 µg/mL (≈ 1.18 µM)	33 mm	1.56 µg/mL (≈ 4.71 µM)	1.56 µg/mL (≈ 4.71 µM)	1.56 µg/mL (≈ 4.71 µM)	32 mm	1.56 µg/mL (≈ 4.71 µM)	
CO[C@H]1/C=C/O[C@@]2(C)Oc3c(C)c(O)c4c(O)c(c(/C=N/N5CCN(C)CC5)c(O)c4c3C2=O)NC(=O)/C(C)=C\C=C\[C@H](C)[C@H](O)[C@@H](C)[C@@H](O)[C@@H](C)[C@H](OC(C)=O)[C@@H]1C [RIFAMPIN]	0.25 µg/mL (≈ 0.304 µM)								99%												
CC[C@@H](CO)NCCN[C@@H](CC)CO [ETHAMBUTOL]	3.12 µg/mL (≈ 15.3 µM)								99%												
